Test results as given in article PMC10466336, “Chemical Probe for Imaging of Polo-like Kinase 4 and Centrioles” (JACS Au, 2023).

Biological target: T1, GFP-Plk4(K41M) in transfected HeLa cells (Homo sapiens, UniProt O00444, K41M)
T1 construct: expressed in transfected cells; host or cells: HeLa
T1 sequence (O00444 1-970 K41M): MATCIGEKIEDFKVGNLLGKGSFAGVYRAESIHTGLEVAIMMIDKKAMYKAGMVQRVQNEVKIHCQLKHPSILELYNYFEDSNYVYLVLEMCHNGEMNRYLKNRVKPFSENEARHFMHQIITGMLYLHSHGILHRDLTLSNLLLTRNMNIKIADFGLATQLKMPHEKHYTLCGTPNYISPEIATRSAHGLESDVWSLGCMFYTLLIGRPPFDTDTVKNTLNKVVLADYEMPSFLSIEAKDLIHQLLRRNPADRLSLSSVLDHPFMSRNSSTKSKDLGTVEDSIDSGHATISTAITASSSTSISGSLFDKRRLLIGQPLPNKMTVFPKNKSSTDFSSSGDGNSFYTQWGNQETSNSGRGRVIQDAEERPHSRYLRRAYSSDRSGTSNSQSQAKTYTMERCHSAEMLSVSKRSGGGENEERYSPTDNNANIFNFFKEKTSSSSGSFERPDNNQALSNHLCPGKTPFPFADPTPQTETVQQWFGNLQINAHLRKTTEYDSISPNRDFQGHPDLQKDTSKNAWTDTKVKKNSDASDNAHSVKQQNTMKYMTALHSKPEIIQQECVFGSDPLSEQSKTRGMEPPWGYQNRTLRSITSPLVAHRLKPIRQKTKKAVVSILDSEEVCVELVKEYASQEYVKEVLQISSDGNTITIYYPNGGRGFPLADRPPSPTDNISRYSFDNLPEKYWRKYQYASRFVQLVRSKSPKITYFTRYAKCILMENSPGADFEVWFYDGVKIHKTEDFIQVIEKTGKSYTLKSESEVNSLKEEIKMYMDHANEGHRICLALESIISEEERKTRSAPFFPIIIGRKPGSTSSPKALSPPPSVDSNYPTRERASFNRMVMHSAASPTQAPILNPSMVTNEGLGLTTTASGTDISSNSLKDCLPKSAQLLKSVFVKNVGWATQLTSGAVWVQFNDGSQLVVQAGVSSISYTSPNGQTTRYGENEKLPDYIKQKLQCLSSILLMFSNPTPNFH
Assay: Live-cell confocal/STED imaging of overexpressed Plk4
Type: cell-based
Conditions: Cen-TCO 500 nM 1 h, tetrazine 500 nM, no wash (Figure S6)

Cc1nnc(COc2cccc3c2C2(OC3=O)c3ccc(N(C)C)cc3[Si](C)(C)c3cc(N(C)C)ccc32)nn1 [HD653, reference compound]
unspecific signal among tetrazines after Cen-TCO labeling: lowest unspecific signal
